Measurements taken from patent EP4752145A1, “DIAMINOCYCLOPENTYL SUBSTITUTED HETEROARYL DERIVATIVES, USE THEREOF AND PREPARATION METHOD THEREFOR” (Tuojie Biotech (Shanghai) Co., Ltd., priority 2023, dated 2025).

Legend:
PCSK9 (biotinylated) = PCSK9 (biotinylated) (Homo sapiens, UniProt Q8NBP7); assay: Binding of compounds to PCSK9 by SPR (BIAcore S200, SA chip); conditions: for Kd: SPR, immobilized biotinylated PCSK9, test compounds diluted 3-fold from 10 µM
Procedure: Table 1. Main experimental materials and instruments
• 1) Protein: PCSK9 (biotinylated) (Acro). The protein was dissolved in water to 200 µg/mL, and the solution was stored at -80 °C. • 2) Chip: SA chip. • 3) Running buffer: 1 × HBSP + 4% DMSO + 0.1 mM CaCl2.
• 1) The chip was pre-warmed to room temperature. • 2) The required buffer was prepared and filtered through a 0.22 µm filter membrane. • 3) The chip was loaded, and parameters were written to the chip. • 4) The PCSK9 protein was diluted to 50 µg/mL in PBS. • 5) An immobilization program was set on the BIAcore S200 instrument. • 6) The immobilization program was run. • 7) The final immobilization response value was 8000 RU, and the maximum response value was 49.4 RU.
1) The compounds were serially diluted 3-fold in the running buffer. The reference compound was diluted 3-fold from 0.4 µM. The test compounds were diluted 3-fold from 10 µM. 2) A dissolution correction buffer was prepared according to the table below: Table 2. Dissolution correction buffer
3) The "LMW multi kinetics" program of the instrument was set as a running program for compound testing. • a) The association time was set at 100 s, and the dissociation time was set at 300 s. 4) The compound testing program was run.
1) Rmax = (MWanalyte/MWligand) × RL × Sm [formula] When affinity fitting was used to fit a curve, the response value of the highest concentration should be close to the fitted Rmax value for an optimal result. 2) Solvent correction and compound concentration gradients were checked. 3) The baseline, binding, and positive compound results in the test report were checked. 4) A suitable fitting method was selected according to the actual association to fit a curve. 5) Whether the fitting result met the data quality assessment criteria of the instrument was checked. Table 3. The binding of compounds of the present disclosure to PCSK9 (KD)

[1] = Stability test in hepatocytes (metabolic clearance rate); assay type: in vitro ADME; conditions: cryopreserved hepatocytes, mouse hepatocytes, 0.5 × 10^6 cells/mL, up to 120 min
Procedure: • 1) The test compounds and the control drug verapamil powder were dissolved in DMSO to prepare high-concentration stock solutions. Before use, the stock solutions were diluted with DMSO to prepare 100 µM working solutions. The final concentrations of the test compounds and verapamil were 1 µM. • 2) A tube of cryopreserved hepatocytes was taken. It was ensured that the hepatocytes were still in a low-temperature frozen state before thawing. The hepatocytes were quickly placed in a 37 °C water bath, gently shaken until all ice crystals were dispersed, sprayed with 70% ethanol, and then transferred to a biosafety cabinet. • 3) The contents of small tubes of hepatocytes from different species were poured into a centrifuge tube containing 50 mL of thawing culture medium and centrifuged at 100 g for 10 min. After centrifugation, the thawing culture medium was pipetted off, and a sufficient amount of incubation culture medium was added to obtain a cell suspension with a cell density of about 1.0 × 10^6 cells/mL. • 4) Hepatocytes were counted using Cellometer Vision, and the viable cell density was determined. The viability of hepatocytes must be greater than 75%. The hepatocyte suspension was diluted with the incubation culture medium to a viable cell density of 0.5 × 10^6 cells/mL. • 5) 198 µL of the viable cell suspension was transferred to a 96-well deep-well plate, and the deep-well plate was placed on a vortexer and pre-heated in an incubator for 10 min. In the experiment, the incubation was performed in duplicate. • 6) 2 µL of the 100 µM test compound or verapamil solution was added to each well to start a reaction, and the deep-well plate was placed back on the vortexer in the incubator. • 7) The samples were incubated. At 0 min, 15 min, 30 min, 60 min, 90 min, and 120 min, 25 µL of the suspension was taken, and 150 µL of acetonitrile containing an internal standard was added to stop the reaction. After 10 min of vortexing, the mixture was centrifuged at 3220 g at 4 °C for 45 min. […] After thorough mixing, the mixture was analyzed by UPLC-MS/MS.
All data calculations were performed through Microsoft Excel software. The peak areas were determined through an extracted ion chromatogram. Through linear fitting of the natural logarithm of the parent drug […] percentage versus time, the in vitro half-life (T1/2) of the parent drug was determined.
The in vitro half-life (T1/2) was calculated through the slope: In vitro T1/2 = 0.693/k [formula]
The in vitro clearance rate (in µL/min/10^6 cells) was calculated using the following formula: In vitro CLint = kV/N, [formula] • where V = the incubation volume per well (0.2 mL); • N = the number of cells per well (0.1 × 10^6 cells). […]

[2] = test system: LDLR protein level of HepG2 cells; assay: Effect on LDLR level of HepG2 cells stimulated with PCSK9 D374Y (human LDLR ELISA); assay type: cell-based; conditions: 75 µM compound; for LDLR up-regulation level" (% control): 4 nM PCSK9 D374Y, 48 h, mean of three duplicate wells; for LDLR protein level result relative to reference compound 1: fold of the result of reference compound 1
Procedure: HepG2 cells were seeded in a 96-well plate at 30,000 cells/well. The next day, 4 nM PCSK9 D374Y was added to each well to stimulate cells, and the cells were treated with a test compound at the same concentration. Three duplicate wells were set for each sample. The cells were cultured at 37 °C with 5% carbon dioxide for 48 h. The cells were washed twice with PBS, and the supernatant was discarded. The cells were then placed on ice and treated with an RIPA lysis buffer containing protease and phosphatase inhibitors at 50 µL/well. The cell culture plate was frozen overnight in a -80 °C freezer, thawed, then lysed on ice for 30 min, and then centrifuged at a low temperature for 15 min. The cell lysate was diluted 20-fold, and an ELISA was performed. A sample or a reference standard was added to a coated well plate at 50 µL/well, and the plate was incubated at room temperature for 2 h. The plate was washed 4 times with a washing buffer by aspiration, and a human LDLR conjugated antibody was added at 200 µL/well. The plate was incubated at room temperature for 2 h. The washing step was repeated, and a substrate solution was added at 200 µL/well. After 30 min, a stop solution was added at 50 µL/well, and the OD was measured at 450 nm. After the LDLR concentration in the sample wells was calculated according to a standard curve, the LDLR increase rate was calculated using the formula (sample value - mean of control wells) / mean of control wells. Data were processed using GraphPad Prism 8. Table 6. The effects of reference compound 1 and example compounds at a concentration of 75 µM on the LDLR protein level of HepG2 cells

Mouse hepatocytes = assay: Metabolite testing in mouse hepatocytes (parent drug remaining); assay type: in vitro ADME, Mice; conditions: mouse hepatocytes (ICR/CD-1, male), 10 µM
Procedure: The objective of this experiment was to identify possible metabolites of a test compound in hepatocytes of different species and speculate about its possible metabolic pathway. The test concentration of the test compound was 10 µM.
Mouse hepatocytes were preserved in liquid nitrogen.
The test compound and the control drug verapamil powder were dissolved in DMSO to prepare high-concentration stock solutions. Before use, the stock solutions were diluted with DMSO to prepare 2 mM working solutions. The final concentrations of the test compound and verapamil were 10 µM.
• 1) Before use, the hepatocyte thawing solution and the incubation solution were placed in a 37 °C water bath and pre-heated for at least 15 min. • 2) A tube of cryopreserved hepatocytes was taken. […] After centrifugation, the thawing culture medium was pipetted off, and a sufficient amount of incubation culture medium was added to obtain a cell suspension with a cell density of about 1.5 × 10^6 cells/mL. • 4) Hepatocytes were counted using Cellometer Vision, and the viable cell density was determined. […]
• 1) 1 µL of the 2 mM test compound solution was pipetted into a 24-well incubation plate, and 199 µL of the hepatocyte suspension was then added to start a reaction. […] 60 µL of the supernatant was well mixed with 60 µL of purified water, and the mixture was then analyzed by UHPLC-MS/MS. […]

in vivo = conditions: male, C57BL6J, mouse, plasma, po, 10 mg/kg
Procedure: (§1) C57BL6J mice were used as test animals. […] Reference compound 1 and the example compound were both administered at a dose of 10 mg/kg. Procedure: Mice were intragastrically dosed with reference compound 1 and the example compound. At 0.25 h, 0.5 h, 1 h, 2 h, 4 h, 6 h, 8 h, and 24 h post-dose, blood samples (about 0.03 mL) were collected via peripheral venipuncture, placed into test tubes containing EDTA-K2, and centrifuged at around 4 °C at 4000 g per minute for 5 min to separate plasma, and the plasma was stored at -75 °C.
(§2) Determination of the content of the test compound in mouse plasma after the compound (at different concentrations) was orally administered: 10 µL of the mouse plasma collected at each time point post-dose was vortexed with 5 µL of a blank solution and 200 µL of a solution of dexamethasone (internal standard) in acetonitrile for 30 s. The mixture was centrifuged for 15 min (3900 rpm), and 12 µL of the supernatant was taken for LC/MS/MS analysis.

[3] = In vivo pharmacokinetic experiment in mice; conditions: oral, 10 mg/kg, fold of reference compound 1
Procedure: as §1, §2

Sequence of PCSK9 (biotinylated) (Q8NBP7 153-692): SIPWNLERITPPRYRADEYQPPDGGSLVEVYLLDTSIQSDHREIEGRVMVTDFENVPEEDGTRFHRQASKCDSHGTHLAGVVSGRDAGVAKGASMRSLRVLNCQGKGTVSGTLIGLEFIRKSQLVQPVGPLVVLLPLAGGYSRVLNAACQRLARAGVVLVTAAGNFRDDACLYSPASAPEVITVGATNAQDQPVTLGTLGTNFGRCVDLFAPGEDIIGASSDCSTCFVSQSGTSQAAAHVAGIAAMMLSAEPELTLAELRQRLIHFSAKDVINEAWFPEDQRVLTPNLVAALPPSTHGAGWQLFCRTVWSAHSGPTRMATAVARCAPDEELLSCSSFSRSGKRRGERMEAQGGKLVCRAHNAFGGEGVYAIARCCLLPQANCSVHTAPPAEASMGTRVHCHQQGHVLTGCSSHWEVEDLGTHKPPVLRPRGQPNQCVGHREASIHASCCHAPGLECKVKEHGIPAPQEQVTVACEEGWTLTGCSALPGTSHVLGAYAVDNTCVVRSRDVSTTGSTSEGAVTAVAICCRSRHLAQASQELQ

Row | SMILES | Kd (PCSK9 (biotinylated)) | hepatocyte CLint at 1 µM [1] | LDLR up-regulation level" (% control) [2] | other results
1 | O=c1ccccn1-c1ccc(N[C@H]2CC[C@H](Nc3ncc4c(n3)CCC4)C2)nc1 [Example 1, 1-(6-{[(1S,3S)-3-(6,7-Dihydro-5H-cyclopenta[1,2-d]pyrimidin-2-ylamino)cyclopentyl]amino}pyridin-3-yl)-1,2-dihydropyridin-2-one] | 26.3 nM | 13.2 µL/min/1e6 cells |  | 
2 | O=c1ccccn1-c1ccc(N[C@H]2CC[C@H](Nc3ncc4c(n3)C(F)(F)CC4)C2)nc1 [Example 2, 1-(6-{[(1S,3S)-3-[(7,7-Difluoro-6,7-dihydro-5H-cyclopenta[1,2-d]pyrimidin-2-yl)amino]cyclopentyl]amino}pyridin-3-yl)-1,2-dihydropyridin-2-one] | 68.7 nM | 21 µL/min/1e6 cells |  | 
3 | O=c1ccccn1-c1ccc(N[C@H]2CC[C@H](Nc3ncc4c(n3)OCCO4)C2)nc1 [Example 3, 1-(6-{[(1S,3S)-3-(6,7-Dihydro[1,4]dioxino[3,2-d]pyrimidin-2-ylamino)cyclopentyl]amino}pyridin-3-yl)-1,2-dihydropyridin-2-one] | 75.8 nM | < 0.1 µL/min/1e6 cells | 160 % control | binding stronger than that of the reference compound 2 (PCSK9 (biotinylated); fold of binding strength versus reference compound 2): more than 10 times; Normalized parent drug remaining proportion (%) after 240 min of incubation (Mouse hepatocytes): 98.3%; AUC(0-t) (in vivo): 48000 ng·h/mL; Cmax (in vivo): 11400 ng/mL; half-life (in vivo): 2.75 h; plasma exposure level relative to reference compound 1 [3]: ~3 times
4 | O=c1cccnn1-c1ccc(N[C@H]2CC[C@H](Nc3ncc4c(n3)OCCO4)C2)nc1 [Example 5, 2-(6-{[(1S,3S)-3-(6,7-Dihydro[1,4]dioxino[3,2-d]pyrimidin-2-ylamino)cyclopentyl]amino}pyridin-3-yl)-3H,2H-1,2-pyridazin-3-one] |  |  | 188 % control | 
5 | O=c1ccccn1-c1cnc(N[C@H]2CC[C@H](Nc3ncc4c(n3)OCCO4)C2)c(F)c1 [Example 6, 1-(5-Fluoro-6-{[(1S,3S)-3-(6,7-dihydro[1,4]dioxino[3,2-d]pyrimidin-2-ylamino)cyclopentyl]amino}pyridin-3-yl)-1,2-dihydropyridin-2-one] |  |  | 155 % control | 
6 | O=c1ccccn1-c1cnc(N[C@H]2CC[C@H](Nc3ncc4c(n3)OCCO4)C2)cn1 [Example 7, 1-(5-{[(1S,3S)-3-(6,7-Dihydro[1,4]dioxino[3,2-d]pyrimidin-2-ylamino)cyclopentyl]amino}pyrazin-2-yl)-1,2-dihydropyridin-2-one] |  |  |  | LDLR protein level result relative to reference compound 1 [2]: 1.16 times
7 | O=C1c2ccccc2CN1c1cnc(N[C@H]2CC[C@H](Nc3ncc4c(n3)OCCO4)C2)cn1 [Example 8, 2-(5-{[(1S,3S)-3-(6,7-Dihydro[1,4]dioxino[3,2-d]pyrimidin-2-ylamino)cyclopentyl]amino}pyrazin-2-yl)-2,3-dihydro-1H-isoindol-1-one] |  |  |  | LDLR protein level result relative to reference compound 1 [2]: 1.04 times
8 | O=c1ccccn1-c1ccc(N[C@H]2CC[C@H](Nc3ncc4ccccc4n3)C2)nc1 [Example 11, 1-(6-{[(1S,3S)-3-(Quinazolin-2-ylamino)cyclopentyl]amino}pyridin-3-yl)-1,2-dihydrop yridin-2-one] | 180 nM |  |  | 
9 | O=c1ccccn1-c1ccc(N[C@H]2CC[C@H](Nc3ncc4sccc4n3)C2)nc1 [Reference compound 2, reference compound] |  | 15.7 µL/min/1e6 cells |  | 
